Reference: BindingDB's records for doi:10.1016/j.bmcl.2004.06.092 (Merck Research Laboratories, 2004)

What was measured:
[1] = molecular target: T1, Dimer of Gag-Pol polyprotein [489-587,Q496K] (Human immunodeficiency virus 1, UniProt P12497, Q496K); test: Protease Inhibition Assay; settings: pH 5.5; 30 °C
T1 construct: 489-587
Method: (§1) Assay of HIV protease inhibition was performed by peptide cleavage using the substrate Val-Ser-Gln-Asn-beta-naphthylalanine*Pro-Ile-Val. Products of the cleavage reaction were quantified by HPLC detection, and data were fit to nonlinear least squares equations for determination of steady-state Michaelis-Menten kinetics.

[2] = molecular target: T2, Dimer of Gag-Pol polyprotein [489-587,Q496K,L499I,M525I,N526D,M535I,R546K,L552P,A560V,G562S,I573V,L579M,I582L] (Human immunodeficiency virus 1, UniProt P12497, A560V/G562S/I573V/I582L/L499I/L552P/L579M/M525I/M535I/N526D/Q496K/R546K); test: Protease Inhibition Assay
T2 construct: 489-587
Method: as §1

COc1cncc(-c2cnc(C(C)(C)N3CCN(C[C@@H](O)C[C@@H](Cc4nnco4)C(=O)N[C@H]4c5ccccc5OC[C@H]4O)[C@H](C(=O)NCC(F)(F)F)C3)o2)c1 [(2S)-1-[(2S,4S)-2-hydroxy-4-{[(3S,4S)-3-hydroxy-3,4-dihydro-2H-1-benzopyran-4-yl]carbamoyl}-4-(1,3,4-oxadiazol-2-ylmethyl)butyl]-4-{2-[5-(5-methoxypyridin-3-yl)-1,3-oxazol-2-yl]propan-2-yl}-N-(2,2,2-trifluoroethyl)piperazine-2-carboxamide]
IC50 [1]: 0.24 nM | IC50 [2]: 7.4 nM

COc1cncc(-c2cnc(C(C)(C)N3CCN(C[C@@H](O)C[C@@H](Cc4nnc(C)o4)C(=O)N[C@H]4c5ccccc5OC[C@H]4O)[C@H](C(=O)NCC(F)(F)F)C3)o2)c1 [(2S)-1-[(2S,4S)-2-hydroxy-4-{[(3S,4S)-3-hydroxy-3,4-dihydro-2H-1-benzopyran-4-yl]carbamoyl}-4-[(5-methyl-1,3,4-oxadiazol-2-yl)methyl]butyl]-4-{2-[5-(5-methoxypyridin-3-yl)-1,3-oxazol-2-yl]propan-2-yl}-N-(2,2,2-trifluoroethyl)piperazine-2-carboxamide]
IC50 [1]: 0.4 nM | IC50 [2]: 15 nM

COc1cncc(-c2cnc(C(C)(C)N3CCN(C[C@@H](O)C[C@@H](Cc4nnc(-c5ccccc5)o4)C(=O)N[C@H]4c5ccccc5OC[C@H]4O)[C@H](C(=O)NCC(F)(F)F)C3)o2)c1 [(2S)-1-[(2S,4S)-2-hydroxy-4-{[(3S,4S)-3-hydroxy-3,4-dihydro-2H-1-benzopyran-4-yl]carbamoyl}-4-[(5-phenyl-1,3,4-oxadiazol-2-yl)methyl]butyl]-4-{2-[5-(5-methoxypyridin-3-yl)-1,3-oxazol-2-yl]propan-2-yl}-N-(2,2,2-trifluoroethyl)piperazine-2-carboxamide]
IC50 [1]: 0.48 nM

CCCc1nnc(C[C@H](C[C@H](O)CN2CCN(C(C)(C)c3ncc(-c4cncc(OC)c4)o3)C[C@H]2C(=O)NCC(F)(F)F)C(=O)N[C@H]2c3ccccc3OC[C@H]2O)o1 [(2S)-1-[(2S,4S)-2-hydroxy-4-{[(3S,4S)-3-hydroxy-3,4-dihydro-2H-1-benzopyran-4-yl]carbamoyl}-4-[(5-propyl-1,3,4-oxadiazol-2-yl)methyl]butyl]-4-{2-[5-(5-methoxypyridin-3-yl)-1,3-oxazol-2-yl]propan-2-yl}-N-(2,2,2-trifluoroethyl)piperazine-2-carboxamide]
IC50 [1]: 0.32 nM

CC(C)(c1ncc(-c2ccc(Cl)cc2)o1)N1CCN(C[C@@H](O)C[C@@H](Cc2nnco2)C(=O)N[C@H]2c3ccccc3OC[C@H]2O)[C@H](C(=O)NCC(F)(F)F)C1 [(2S)-4-{2-[5-(4-chlorophenyl)-1,3-oxazol-2-yl]propan-2-yl}-1-[(2S,4S)-2-hydroxy-4-{[(3S,4S)-3-hydroxy-3,4-dihydro-2H-1-benzopyran-4-yl]carbamoyl}-4-(1,3,4-oxadiazol-2-ylmethyl)butyl]-N-(2,2,2-trifluoroethyl)piperazine-2-carboxamide]
IC50 [1]: < 0.015 nM | IC50 [2]: 0.043 nM

Cc1nnc(C[C@H](C[C@H](O)CN2CCN(C(C)(C)c3ncc(-c4ccc(Cl)cc4)o3)C[C@H]2C(=O)NCC(F)(F)F)C(=O)N[C@H]2c3ccccc3OC[C@H]2O)o1 [(2S)-4-{2-[5-(4-chlorophenyl)-1,3-oxazol-2-yl]propan-2-yl}-1-[(2S,4S)-2-hydroxy-4-{[(3S,4S)-3-hydroxy-3,4-dihydro-2H-1-benzopyran-4-yl]carbamoyl}-4-[(5-methyl-1,3,4-oxadiazol-2-yl)methyl]butyl]-N-(2,2,2-trifluoroethyl)piperazine-2-carboxamide]
IC50 [1]: 0.016 nM | IC50 [2]: 0.06 nM

CC(C)(c1ncc(-c2ccc(Cl)cc2)o1)N1CCN(C[C@@H](O)C[C@@H](Cc2nnc(-c3ccccc3)o2)C(=O)N[C@H]2c3ccccc3OC[C@H]2O)[C@H](C(=O)NCC(F)(F)F)C1 [(2S)-4-{2-[5-(4-chlorophenyl)-1,3-oxazol-2-yl]propan-2-yl}-1-[(2S,4S)-2-hydroxy-4-{[(3S,4S)-3-hydroxy-3,4-dihydro-2H-1-benzopyran-4-yl]carbamoyl}-4-[(5-phenyl-1,3,4-oxadiazol-2-yl)methyl]butyl]-N-(2,2,2-trifluoroethyl)piperazine-2-carboxamide]
IC50 [1]: < 0.015 nM | IC50 [2]: 0.18 nM

CCCc1nnc(C[C@H](C[C@H](O)CN2CCN(C(C)(C)c3ncc(-c4ccc(Cl)cc4)o3)C[C@H]2C(=O)NCC(F)(F)F)C(=O)N[C@H]2c3ccccc3OC[C@H]2O)o1 [(2S)-4-{2-[5-(4-chlorophenyl)-1,3-oxazol-2-yl]propan-2-yl}-1-[(2S,4S)-2-hydroxy-4-{[(3S,4S)-3-hydroxy-3,4-dihydro-2H-1-benzopyran-4-yl]carbamoyl}-4-[(5-propyl-1,3,4-oxadiazol-2-yl)methyl]butyl]-N-(2,2,2-trifluoroethyl)piperazine-2-carboxamide]
IC50 [1]: < 0.015 nM | IC50 [2]: 0.12 nM

CC(C)(c1ncc(-c2ccc(F)cc2)o1)N1CCN(C[C@@H](O)C[C@@H](Cc2nnco2)C(=O)N[C@H]2c3ccccc3OC[C@H]2O)[C@H](C(=O)NCC(F)(F)F)C1 [(2S)-4-{2-[5-(4-fluorophenyl)-1,3-oxazol-2-yl]propan-2-yl}-1-[(2S,4S)-2-hydroxy-4-{[(3S,4S)-3-hydroxy-3,4-dihydro-2H-1-benzopyran-4-yl]carbamoyl}-4-(1,3,4-oxadiazol-2-ylmethyl)butyl]-N-(2,2,2-trifluoroethyl)piperazine-2-carboxamide]
IC50 [1]: 0.024 nM | IC50 [2]: 0.065 nM

Cc1nnc(C[C@H](C[C@H](O)CN2CCN(C(C)(C)c3ncc(-c4ccc(F)cc4)o3)C[C@H]2C(=O)NCC(F)(F)F)C(=O)N[C@H]2c3ccccc3OC[C@H]2O)o1 [(2S)-4-{2-[5-(4-fluorophenyl)-1,3-oxazol-2-yl]propan-2-yl}-1-[(2S,4S)-2-hydroxy-4-{[(3S,4S)-3-hydroxy-3,4-dihydro-2H-1-benzopyran-4-yl]carbamoyl}-4-[(5-methyl-1,3,4-oxadiazol-2-yl)methyl]butyl]-N-(2,2,2-trifluoroethyl)piperazine-2-carboxamide]
IC50 [1]: 0.027 nM | IC50 [2]: 0.19 nM

CC(C)(c1ncc(-c2ccc(F)cc2)o1)N1CCN(C[C@@H](O)C[C@@H](Cc2nnc(-c3ccccc3)o2)C(=O)N[C@H]2c3ccccc3OC[C@H]2O)[C@H](C(=O)NCC(F)(F)F)C1 [(2S)-4-{2-[5-(4-fluorophenyl)-1,3-oxazol-2-yl]propan-2-yl}-1-[(2S,4S)-2-hydroxy-4-{[(3S,4S)-3-hydroxy-3,4-dihydro-2H-1-benzopyran-4-yl]carbamoyl}-4-[(5-phenyl-1,3,4-oxadiazol-2-yl)methyl]butyl]-N-(2,2,2-trifluoroethyl)piperazine-2-carboxamide]
IC50 [1]: 0.02 nM

CCCc1nnc(C[C@H](C[C@H](O)CN2CCN(C(C)(C)c3ncc(-c4ccc(F)cc4)o3)C[C@H]2C(=O)NCC(F)(F)F)C(=O)N[C@H]2c3ccccc3OC[C@H]2O)o1 [(2S)-4-{2-[5-(4-fluorophenyl)-1,3-oxazol-2-yl]propan-2-yl}-1-[(2S,4S)-2-hydroxy-4-{[(3S,4S)-3-hydroxy-3,4-dihydro-2H-1-benzopyran-4-yl]carbamoyl}-4-[(5-propyl-1,3,4-oxadiazol-2-yl)methyl]butyl]-N-(2,2,2-trifluoroethyl)piperazine-2-carboxamide]
IC50 [1]: 0.016 nM | IC50 [2]: 0.19 nM

O=C(N[C@H]1c2ccccc2OC[C@H]1O)[C@H](Cc1nnco1)C[C@H](O)CN1CCN(Cc2ccc(-c3ccc(Cl)cc3)o2)C[C@H]1C(=O)NCC(F)(F)F [(2S)-4-{[5-(4-chlorophenyl)furan-2-yl]methyl}-1-[(2S,4S)-2-hydroxy-4-{[(3S,4S)-3-hydroxy-3,4-dihydro-2H-1-benzopyran-4-yl]carbamoyl}-4-(1,3,4-oxadiazol-2-ylmethyl)butyl]-N-(2,2,2-trifluoroethyl)piperazine-2-carboxamide]
IC50 [1]: 0.015 nM | IC50 [2]: 0.099 nM

Cc1nnc(C[C@H](C[C@H](O)CN2CCN(Cc3ccc(-c4ccc(Cl)cc4)o3)C[C@H]2C(=O)NCC(F)(F)F)C(=O)N[C@H]2c3ccccc3OC[C@H]2O)o1 [(2S)-4-{[5-(4-chlorophenyl)furan-2-yl]methyl}-1-[(2S,4S)-2-hydroxy-4-{[(3S,4S)-3-hydroxy-3,4-dihydro-2H-1-benzopyran-4-yl]carbamoyl}-4-[(5-methyl-1,3,4-oxadiazol-2-yl)methyl]butyl]-N-(2,2,2-trifluoroethyl)piperazine-2-carboxamide]
IC50 [1]: < 0.015 nM

O=C(N[C@H]1c2ccccc2OC[C@H]1O)[C@H](Cc1nnc(-c2ccccc2)o1)C[C@H](O)CN1CCN(Cc2ccc(-c3ccc(Cl)cc3)o2)C[C@H]1C(=O)NCC(F)(F)F [(2S)-4-{[5-(4-chlorophenyl)furan-2-yl]methyl}-1-[(2S,4S)-2-hydroxy-4-{[(3S,4S)-3-hydroxy-3,4-dihydro-2H-1-benzopyran-4-yl]carbamoyl}-4-[(5-phenyl-1,3,4-oxadiazol-2-yl)methyl]butyl]-N-(2,2,2-trifluoroethyl)piperazine-2-carboxamide]
IC50 [1]: 0.019 nM

CCCc1nnc(C[C@H](C[C@H](O)CN2CCN(Cc3ccc(-c4ccc(Cl)cc4)o3)C[C@H]2C(=O)NCC(F)(F)F)C(=O)N[C@H]2c3ccccc3OC[C@H]2O)o1 [(2S)-4-{[5-(4-chlorophenyl)furan-2-yl]methyl}-1-[(2S,4S)-2-hydroxy-4-{[(3S,4S)-3-hydroxy-3,4-dihydro-2H-1-benzopyran-4-yl]carbamoyl}-4-[(5-propyl-1,3,4-oxadiazol-2-yl)methyl]butyl]-N-(2,2,2-trifluoroethyl)piperazine-2-carboxamide]
IC50 [1]: < 0.015 nM
